The values below come from patent US20170001990A1 (Genentech, Inc., priority 2014, published 2017).

One may read the IC50 as the concentration needed to halve the response being measured.

Structures are written as SMILES.

This assay deals with Human recombinant carboxy-terminal his-tagged LDHA (amino acids 2-332) (Homo sapiens, UniProt P00338). Description: LDHA enzyme inhibition assay (NADH fluorescence). Conditions: LDHA IC50 (μM), 1 nM LDHA, NADH and pyruvate, stereochemistry of tested sample given.
For the compound `O=C1CC(c2ccsc2)(c2cccc(OCC3CCC3)n2)NC(=O)C1Sc1ccccc1Cl` (stereo not shown) [Example 224, 3-(2-chlorophenyl)sulfanyl-6-[6-(cyclobutylmethoxy)-2-pyridyl]-6-(3-thienyl) piperidine-2,4-dione], the half-maximal inhibitory concentration (IC50) was 0.02 µM. As for `O=C1CC(c2ccsc2)(c2cccc(NCCC3CC3)n2)NC(=O)C1Sc1ccccc1Cl` (stereo not shown) [Example 174, 3-(2-chlorophenyl)sulfanyl-6-[6-(2-cyclopropyl-ethylamino)-2-pyridyl]-6-(3-thienyl)piperidine-2,4-dione], the 50% inhibitory concentration (IC50) was 0.068 µM. Turning to `CCC(Oc1cccc(C2(c3ccsc3)CC(=O)C(Sc3ccccc3Cl)C(=O)N2)n1)c1ccc(F)cc1` (stereo not shown) [Example 305], the half-maximal inhibitory concentration (IC50) was 0.025 µM.

Regarding `O=C1CC(c2ccsc2)(c2cccc(Oc3cccc4cccnc34)n2)NC(=O)C1Sc1ccccc1Cl` (stereo not shown) [Example 100, 3-((2-chlorophenyl)thio)-6-(6-(quinolin-8-yloxy)pyridin-2-yl)-6-(thiophen-3-yl)piperidine-2,4-dione], the IC50 stood at 0.046 µM. The same measure for `O=C1CC(c2ccsc2)(c2ccc3ccccc3c2)NC(=O)C1Sc1ccccc1Cl` (stereo not shown) [Example 32, 3-(2-chlorophenyl)sulfanyl-6-(2-naphthyl)-6-(3-thienyl)piperidine-2,4-dione]: 0.01 µM.

With `CC(Oc1cccc(C2(c3ccsc3)CC(=O)C(Sc3ccccc3Cl)C(=O)N2)n1)C1CC1` (single isomer, unassigned) [Example 214, 3-(2-chlorophenyl)sulfanyl-6-[6-(1-cyclopropyl-ethoxy)-2-pyridyl]-6-(3-thienyl)piperidine-2,4-dione], the IC50 is 0.017 µM. As for `CC(C)(O)CCOc1cccc(C2(c3ccsc3)CC(=O)C(Sc3ccccc3Cl)C(=O)N2)n1` (single isomer, unassigned) [Example 155, 3-(2-chlorophenyl)sulfanyl-6-[6-(3-hydroxy-3-methyl-butoxy)-2-pyridyl]-6-(3-thienyl)piperidine-2,4-dione], the figure is 0.025 µM; as for `C[C@@H](Nc1cccc(C2(c3ccsc3)CC(=O)C(Sc3ccccc3Cl)C(=O)N2)n1)c1ccc(F)cc1` (mixture of isomers) [Example 302, 3-((2-chlorophenyl)thio)-6-(6-((1-(4-fluorophenyl)ethyl)amino)pyridin-2-yl)-6-(thiophen-3-yl) piperidine-2,4-dione], 0.03 µM. On to `O=C1CC(c2ccsc2)(c2cccc(Oc3ccc(F)c(F)c3)n2)NC(=O)C1Sc1ccccc1Cl` (single isomer, unassigned) [Example 78, 3-(2-chlorophenyl)sulfanyl-6-[6-(3,4-difluoro-phenoxy)-2-pyridyl]-6-(3-thienyl)piperidine-2,4-dione], for which the IC50 came to 0.023 µM. As to `CCC1(COc2cccc([C@@]3(c4ccsc4)CC(=O)C(Sc4ccccc4Cl)C(=O)N3)n2)COC1` (stereo partly shown) [Example 248], the IC50 is 0.005 µM. On to `COCc1ccccc1Oc1cccc(C2(c3ccsc3)CC(=O)C(Sc3ccccc3Cl)C(=O)N2)n1` (stereo not shown) [Example 101], for which the IC50 amounted to 0.018 µM. On to `O=C1CC(c2ccsc2)(c2cccc(Nc3ccc(F)c(F)c3Cl)n2)NC(=O)C1Sc1ccccc1Cl` (stereo not shown) [Example 329, 6-[6-(2-chloro-3,4-difluoro-anilino)-2-pyridyl]-3-(2-chlorophenyl)sulfanyl-6-(3-thienyl)piperidine-2,4-dione], for which the IC50 worked out at 0.037 µM. For the compound `COc1ccccc1Oc1cccc(C2(c3ccsc3)CC(=O)C(Sc3ccccc3Cl)C(=O)N2)n1` (single isomer, unassigned) [Example 337, 5-(2-chlorophenyl)sulfanyl-4-hydroxy-2-[6-(2-methoxyphenoxy)-2-pyridyl]-2-(3-thienyl)-1,3-dihydropyridin-6-one], the IC50 came out at 0.021 µM. Take `O=C1CC(c2ccsc2)(c2cccc(Oc3ccc(F)c(C(F)(F)F)c3)n2)NC(=O)C1Sc1ccccc1Cl` (single isomer, unassigned) [Example 144, 3-(2-chlorophenyl)sulfanyl-6-[6-[4-fluoro-3-(trifluoromethyl)phenoxy]-2-pyridyl]-6-(3-thienyl) piperidine-2,4-dione]: the IC50 was determined as 0.143 µM.

For the compound `O=C1CC(c2ccsc2)(c2cccc(NCc3ccc(F)cc3)n2)NC(=O)C1Sc1ccccc1Cl` (single isomer, unassigned) [Example 285, 3-((2-chlorophenyl)thio)-6-(6-((4-fluorobenzyl)amino)pyridin-2-yl)-6-(thiophen-3-yl)piperidine-2,4-dione], the 50% inhibitory concentration (IC50) was 0.01 µM. In the case of `O=C1CC(c2ccsc2)(c2cccc(Oc3cccc4cccnc34)n2)NC(=O)C1Sc1ccccc1Cl` (stereo not shown) [Example 88, 33-(2-chlorophenyl) sulfanyl-6-[6-(8-quinolyloxy)-2-pyridyl]-6-(3-thienyl)piperidine-2,4-dione], the half-inhibitory concentration (IC50) is 0.017 µM. Take `O=C1CC(c2ccsc2)(c2cccc(OCC3CCC(CO)CC3)n2)NC(=O)C1Sc1ccccc1Cl` (single isomer, unassigned) [Example 244, 3-(2-chlorophenyl)sulfanyl-6-[6-[[4-(hydroxymethyl)cyclohexyl]methoxy]-2-pyridyl]-6-(3-thienyl) piperidine-2,4-dione]: the half-maximal inhibitory concentration (IC50) worked out at 0.023 µM. As for `CC(COc1cccc(C2(c3ccsc3)CC(=O)C(Sc3ccccc3Cl)C(=O)N2)n1)C1CC1` (stereo not shown) [Example 179, 3-((2-chlorophenyl)thio)-6-(6-(2-cyclopropyl-propoxy)pyridin-2-yl)-6-(thiophen-3-yl)piperidine-2,4-dione], the figure is 0.014 µM; as for `CC(C)(O)CCCOc1cccc(C2(c3ccsc3)CC(=O)C(Sc3ccccc3Cl)C(=O)N2)n1` (single isomer, unassigned) [Example 114, 3-((2-chlorophenyl)thio)-6-(6-((4-hydroxy-4-methyl-pentyl)oxy)pyridin-2-yl)-6-(thiophen-3-yl) piperidine-2,4-dione], 0.053 µM. For `CC(Oc1cccc(C2(c3ccsc3)CC(=O)C(Sc3ccccc3Cl)C(=O)N2)n1)C1CC1` (single isomer, unassigned) [Example 207, 3-(2-chlorophenyl)sulfanyl-6-[6-(1-cyclopropylethoxy)-2-pyridyl]-6-(3-thienyl) piperidine-2,4-dione], the 50% inhibitory concentration (IC50) is 0.02 µM.

Take `O=C1CC(c2ccsc2)(c2cccc(OCCC3CCC3)n2)NC(=O)C1Sc1ccccc1Cl` (single isomer, unassigned) [Example 132, 3-((2-chlorophenyl)thio)-6-(6-(2-cyclobutyl-ethoxy)pyridin-2-yl)-6-(thiophen-3-yl)piperidine-2,4-dione]: the half-maximal inhibitory concentration (IC50) was determined as 0.009 µM.

In the case of `O=C1CC(c2ccsc2)(c2cccc(N[C@H](CO)c3ccc(F)c(Cl)c3)n2)NC(=O)C1Sc1ccccc1Cl` (stereo partly drawn) [Example 296, 6-(6-(((S)-1-(3-chloro-4-fluorophenyl)-2-hydroxy-ethyl)amino)pyridin-2-yl)-3-((2-chlorophenyl)thio)-6-(thiophen-3-yl) piperidine-2,4-dione], the IC50 amounted to 0.039 µM.

In the case of `Cc1cc(Nc2cccc(C3(c4ccsc4)CC(=O)C(Sc4ccccc4Cl)C(=O)N3)n2)nn1C` (stereo not shown) [Example 272, 3-((2-chlorophenyl)thio)-6-(6-((1,5-dimethyl-1H-pyrazol-3-yl)amino)pyridin-2-yl)-6-(thiophen-3-yl) piperidine-2,4-dione], the IC50 came out at 0.459 µM.

Regarding `O=C1CC(c2ccsc2)(c2cccc(Cc3ccccc3)n2)NC(=O)C1Sc1ccccc1Cl` (single isomer, unassigned) [Example 118, 6-(6-benzylpyridin-2-yl)-3-((2-chloropnenyl)thio)-6-(thiophen-3-yl) piperidine-2,4-dione], the half-maximal inhibitory concentration (IC50) worked out at 0.622 µM. On to `Cn1cnc(Nc2cccc(C3(c4ccsc4)CC(=O)C(Sc4ccccc4Cl)C(=O)N3)n2)n1` (stereo not shown) [Example 271, 3-((2-chlorophenyl)thio)-6-(6-((1-methyl-1H-1,2,4-triazol-3-yl)amino)pyridin-2-yl)-6-(thiophen-3-yl) piperidine-2,4-dione], for which the half-inhibitory concentration (IC50) was 0.355 µM. For `CC1(COc2cccc(C3(c4ccsc4)CC(=O)C(Sc4ccccc4Cl)C(=O)N3)n2)CC1` (single isomer, unassigned) [Example 182, 3-(2-chlorophenyl)sulfanyl-6-[6-[(1-methylcyclo-propyl)methoxy]-2-pyridyl]-6-(3-thienyl)piperidine-2,4-dione], the IC50 was 0.056 µM.

`COC(C)(C)CCOc1cccc(C2(c3ccsc3)CC(=O)C(Sc3ccccc3Cl)C(=O)N2)n1` (stereo not shown) [Example 249, 3-(2-chlorophenyl)sulfanyl-6-[6-(3-methoxy-3-methyl-butoxy)-2-pyridyl]-6-(3-thienyl)piperidine-2,4-dione]: the IC50 came out at 0.099 µM. Turning to `O=C1CC(c2ccsc2)(c2cccc(OC3CCCc4c(F)cccc43)n2)NC(=O)C1Sc1ccccc1Cl` (stereo not shown) [Example 333, 5-(2-chlorophenyl)sulfanyl-2-[6-(5-fluorotetralin-1-yl)oxy-2-pyridyl]-4-hydroxy-2-(3-thienyl)-1,3-dihydropyridin-6-one], the half-inhibitory concentration (IC50) was determined as 0.198 µM.
